Activity calls are given as the source filed them. The rule behind the calls is not given here.
How the values were obtained:
[1] = target: T1, Threonine--tRNA ligase 1, cytoplasmic (Homo sapiens) (UniProt P26639); assay: Inhibition of ThRS in human UMSCC1 cells assessed as increase in XBP1 splicing by RT-PCR analysis; assay type: cell-based
T1 sequence (whole entry): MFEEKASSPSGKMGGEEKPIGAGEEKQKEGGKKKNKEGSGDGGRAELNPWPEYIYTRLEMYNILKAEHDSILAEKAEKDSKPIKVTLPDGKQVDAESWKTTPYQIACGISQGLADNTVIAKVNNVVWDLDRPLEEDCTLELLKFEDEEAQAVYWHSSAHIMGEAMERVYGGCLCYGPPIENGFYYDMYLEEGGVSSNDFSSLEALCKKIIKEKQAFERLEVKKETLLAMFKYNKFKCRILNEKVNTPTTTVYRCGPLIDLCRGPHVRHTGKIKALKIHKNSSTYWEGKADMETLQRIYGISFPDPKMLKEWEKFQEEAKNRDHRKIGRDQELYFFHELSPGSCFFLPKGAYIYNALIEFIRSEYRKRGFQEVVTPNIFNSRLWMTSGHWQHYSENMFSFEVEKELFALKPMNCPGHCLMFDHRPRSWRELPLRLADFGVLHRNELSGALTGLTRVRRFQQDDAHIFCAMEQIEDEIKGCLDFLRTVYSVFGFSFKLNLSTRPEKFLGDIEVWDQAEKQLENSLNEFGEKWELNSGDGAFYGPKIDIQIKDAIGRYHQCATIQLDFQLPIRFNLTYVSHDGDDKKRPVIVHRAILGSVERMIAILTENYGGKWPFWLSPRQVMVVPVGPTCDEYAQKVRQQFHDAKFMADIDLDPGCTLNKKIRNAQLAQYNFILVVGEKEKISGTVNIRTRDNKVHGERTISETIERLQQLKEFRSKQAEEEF

[2] = tested on: MEF; assay: Inhibition of cell proliferation in mouse MEF cells expressing eIF2alpha Ser51Ala mutant after 16 hrs Celltiter Glo assay; assay type: functional, cell-based
[3] = target: T2, Threonine--tRNA ligase 1, cytoplasmic (Mus musculus) (UniProt Q9D0R2); conditions: MEF, 5 uM
T2 sequence (whole entry): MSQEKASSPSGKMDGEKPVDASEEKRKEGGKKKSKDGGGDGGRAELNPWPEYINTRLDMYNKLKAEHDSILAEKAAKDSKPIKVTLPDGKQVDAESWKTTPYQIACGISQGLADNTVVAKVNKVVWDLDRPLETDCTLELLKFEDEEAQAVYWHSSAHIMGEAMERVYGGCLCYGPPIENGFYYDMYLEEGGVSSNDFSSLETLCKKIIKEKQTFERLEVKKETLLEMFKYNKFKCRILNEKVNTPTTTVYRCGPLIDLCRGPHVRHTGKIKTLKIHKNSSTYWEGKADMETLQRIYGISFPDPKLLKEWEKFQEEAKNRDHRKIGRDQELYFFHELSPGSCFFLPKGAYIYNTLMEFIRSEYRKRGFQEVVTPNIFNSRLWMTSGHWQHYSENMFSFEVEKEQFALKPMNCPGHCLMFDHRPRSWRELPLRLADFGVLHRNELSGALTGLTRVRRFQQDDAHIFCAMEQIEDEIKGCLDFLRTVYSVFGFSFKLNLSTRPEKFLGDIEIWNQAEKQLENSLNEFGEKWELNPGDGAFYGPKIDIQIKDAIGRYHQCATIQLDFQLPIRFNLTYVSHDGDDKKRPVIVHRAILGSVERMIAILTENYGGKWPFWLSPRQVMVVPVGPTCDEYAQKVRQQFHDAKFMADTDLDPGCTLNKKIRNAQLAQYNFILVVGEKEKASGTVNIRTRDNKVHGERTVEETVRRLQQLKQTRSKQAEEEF
Description: Inhibition of ThRs in mouse MEF cells expressing Gcn2 (-/-) assessed as effect on Gadd45beta mRNA level at 5 uM by RT-PCR analysis

[4] = tested on: MEF; assay: Inhibition of cell proliferation in mouse MEF cells expressing Chop(-/-) after 16 hrs Celltiter Glo assay; assay type: functional, cell-based
[5] = tested on: A549; assay: Inhibition of cell proliferation in human A549 cells expressing BAX/BAK (-/-) after 24 hrs by CelltiterGlo assay; assay type: functional, cell-based
[6] = tested on: UMSCC14A; assay: Inhibition of cell proliferation in human UMSCC14A cells for 24 hrs by Celltiter Glo assay; assay type: functional, cell-based
[7] = target: T2, Threonine--tRNA ligase 1, cytoplasmic (Mus musculus); conditions: MEF, 5 uM; remark: listed apart in the source
Description: Inhibition of ThRs in mouse MEF cells expressing Perk (-/-) assessed as effect on Chop level at 5 uM by immunoblot analysis

[8] = tested on: UMSCC1; assay: Effect on Bip/GRP78 mRNA level in human UMSCC1 cells at 5 uM after 6 hrs by RT-qPCR analysis; assay type: functional, cell-based
[9] = tested on: UMSCC1; assay: Inhibition of cell proliferation in human UMSCC1 cells for 24 hrs by Celltiter Glo assay; assay type: functional, cell-based
[10] = target: T1, Threonine--tRNA ligase 1, cytoplasmic (Homo sapiens); assay: Inhibition of ThRS in human UMSCC1 cells assessed as increase in UPR-related gene expression at 10 uM by RT-PCR analysis; assay type: cell-based
[11] = target: T1, Threonine--tRNA ligase 1, cytoplasmic (Homo sapiens); assay: Inhibition of ThRS in human UMSCC1 cells assessed as increase in apoptosis-related gene expression at 10 uM by RT-PCR analysis; assay type: cell-based
[12] = tested on: MEF; assay: Inhibition of cell proliferation in mouse MEF cells expressing Hri(-/-) after 16 hrs CelltiterGlo assay; assay type: functional, cell-based
[13] = target: T2, Threonine--tRNA ligase 1, cytoplasmic (Mus musculus); conditions: MEF, 5 uM; remark: listed apart in the source
Description: Inhibition of ThRs in mouse MEF cells expressing Gcn2 (-/-) assessed as effect on Puma mRNA level at 5 uM by RT-PCR analysis

[14] = target: T2, Threonine--tRNA ligase 1, cytoplasmic (Mus musculus); conditions: MEF, 5 uM; remark: listed apart in the source
Description: Inhibition of ThRs in mouse MEF cells expressing Gcn2 (-/-) assessed as effect on Dr5 mRNA level at 5 uM by RT-PCR analysis

[15] = target: T1, Threonine--tRNA ligase 1, cytoplasmic (Homo sapiens); assay: Inhibition of ThRS in human UMSCC1 cells assessed as increase in DNA damaging-related gene expression at 10 uM by RT-PCR analysis; assay type: cell-based
[16] = target: T2, Threonine--tRNA ligase 1, cytoplasmic (Mus musculus); conditions: MEF, 5 uM; remark: listed apart in the source
Description: Inhibition of ThRs in mouse MEF cells expressing Gcn2 (-/-) assessed as effect on Noxa mRNA level at 5 uM by RT-PCR analysis

[17] = target: T2, Threonine--tRNA ligase 1, cytoplasmic (Mus musculus); conditions: MEF, 5 uM; remark: listed apart in the source
Description: Inhibition of ThRs in mouse MEF cells expressing Gcn2 (-/-) assessed as effect on phosphorylated eIF2alpha level at 5 uM by immunoblot analysis

[18] = Cytotoxicity against HEK cells after 24 hrs by CelltiterGlo assay; assay type: cell-based; conditions: human, hek293, 24 h
[19] = target: T1, Threonine--tRNA ligase 1, cytoplasmic (Homo sapiens); assay: Inhibition of ThRS in human UMSCC1 cells assessed as increase in ATF3 mRNA level at 5 uM after 6 hrs by RT-qPCR analysis; assay type: cell-based
[20] = target: T1, Threonine--tRNA ligase 1, cytoplasmic (Homo sapiens); assay: Inhibition of ThRS in human UMSCC1 cells assessed as increase in ATF4 mRNA level at 5 uM after 6 hrs by RT-qPCR analysis; assay type: cell-based
[21] = target: T2, Threonine--tRNA ligase 1, cytoplasmic (Mus musculus); conditions: MEF, 5 uM; remark: listed apart in the source
Description: Inhibition of ThRs in mouse MEF cells expressing Gcn2 (-/-) assessed as effect on Chop level at 5 uM by immunoblot analysis

[22] = target: T1, Threonine--tRNA ligase 1, cytoplasmic (Homo sapiens); assay: Inhibition of ThRS in human UMSCC1 cells assessed as increase in CHOP mRNA level at 5 uM after 6 hrs by RT-qPCR analysis; assay type: cell-based
[23] = tested on: UMSCC23; assay: Inhibition of cell proliferation in human UMSCC23 cells for 24 hrs by Celltiter Glo assay; assay type: functional, cell-based
[24] = target: T2, Threonine--tRNA ligase 1, cytoplasmic (Mus musculus); conditions: MEF, 5 uM; remark: listed apart in the source
Description: Inhibition of ThRs in mouse MEF cells expressing Perk (-/-) assessed as effect on phosphorylated eIF2alpha level at 5 uM by immunoblot analysis

[25] = target: T2, Threonine--tRNA ligase 1, cytoplasmic (Mus musculus); conditions: MEF, 5 uM; remark: listed apart in the source
Description: Inhibition of ThRs in mouse MEF cells expressing Gcn2 (-/-) assessed as effect on Trb3 mRNA level at 5 uM by RT-PCR analysis

[26] = tested on: MEF; assay: Inhibition of cell proliferation in mouse MEF cells expressing Atf4(-/-) after 16 hrs CelltiterGlo assay; assay type: functional, cell-based
[27] = tested on: MEF; assay: Inhibition of cell proliferation in mouse MEF cells expressing Pkr(-/-) after 16 hrs CelltiterGlo assay; assay type: functional, cell-based

| Activity [1] | Activity [10] | Activity [11] | Activity [15] | Activity [19] | Activity [20] | Activity [22] | Compound | inhibition [6] | Activity [8] | inhibition [9] | Activity [18] | inhibition [23] | also measured |
| --- | --- | --- | --- | --- | --- | --- | --- | --- | --- | --- | --- | --- | --- |
| inactive | inactive | inactive | inactive | inactive | inactive | inactive | CC(=O)NC/C1=C/C=C/C[C@@H]([C@@H]2CCC[C@H]2C(N)=O)OC(=O)C[C@H](O)[C@@H](C)C[C@@H](C)C[C@@H](C)C[C@H](C)[C@H]1O | inactive |  | inactive | Toxic | inactive |  |
| Active | inactive | inactive | inactive | Active | Active | Active | C[C@@H]1C[C@H](C)C[C@H](C)[C@@H](O)CC(=O)O[C@H]([C@@H]2CCC[C@H]2C(N)=O)C/C=C/C=C(/C#N)[C@H](O)[C@@H](C)C1 | Active | inactive | Active | Toxic | Active |  |

| Compound | Activity [1] | Activity [10] | Activity [11] | Activity [15] | Activity [19] | Activity [20] | Activity [22] | inhibition [6] | Activity [8] | inhibition [9] | Activity [18] | inhibition [23] | also measured |
| --- | --- | --- | --- | --- | --- | --- | --- | --- | --- | --- | --- | --- | --- |
| C[C@@H]1C[C@H](C)C[C@H](C)[C@@H](O)CC(=O)O[C@H]([C@@H]2CCC[C@H]2C(=O)O)C/C=C/C=C(/C#N)[C@H](O)[C@@H](C)C1 [BORRELIDIN] | Active | Active | Active | Active | Active | Active | Active | Active | inactive | Active | Toxic | Active | inhibition [2]: Active; inhibition [3]: inactive; inhibition [4]: inactive; inhibition [5]: inactive; inhibition [7]: inactive; inhibition [12]: inactive; inhibition [13]: inactive; inhibition [14]: inactive; inhibition [16]: inactive; inhibition [17]: inactive; inhibition [21]: inactive; inhibition [24]: inactive; inhibition [25]: inactive; inhibition [26]: inactive; inhibition [27]: inactive |

Reference: ChEMBL document CHEMBL3751685, “Borrelidin Induces the Unfolded Protein Response in Oral Cancer Cells and Chop-Dependent Apoptosis” (ACS Med Chem Lett, 2015)
